Results from the NIST ThermoML archive (doi:10.1016/j.tca.2015.01.012).

Details: 101.33 kPa, Crystal; for molar entropy: Small (less than 1 g) adiabatic calorimetry; for mass density: X-ray diffraction

O=C(O)c1cccnc1 [3-carboxylpyridine]
Details	mass density [kg/m3]	molar entropy [J/K/mol]
1 K	–	0.0005
2 K	–	0.004
3 K	–	0.0136
4 K	–	0.0323
5 K	–	0.063
6 K	–	0.1089
7 K	–	0.1788
8 K	–	0.2634
9 K	–	0.3747
10 K	–	0.5086
15 K	–	1.592
20 K	–	3.297
25 K	–	5.543
30 K	–	8.212
35 K	–	11.2
40 K	–	14.39
45 K	–	17.7
50 K	–	21.08
60 K	–	27.91
70 K	–	34.69
80 K	–	41.32
90 K	–	47.75
100 K	–	53.98
110 K	–	60.02
120 K	–	65.91
130 K	–	71.64
140 K	–	77.24
150 K	1481	82.72
160 K	–	88.1
170 K	–	93.38
175 K	1477	–
180 K	–	98.6
190 K	–	103.7
200 K	1471	108.9
210 K	–	113.9
220 K	–	119
225 K	1465	–
230 K	–	124
240 K	–	129
250 K	1460	134.1
260 K	–	139.1
270 K	–	144.2
273.15 K	–	145.7
275 K	1454	–
280 K	–	149.2
290 K	–	154.3
298.15 K	–	158.4
300 K	1444	159.3
310 K	–	164.4
320 K	–	169.5
325 K	1436	–
330 K	–	174.6
340 K	–	179.7
346 K	–	182.8
350 K	1430	–
375 K	1422	–
400 K	1413	–
425 K	1406	–
